Data taken from patent US12410153B2, “Compounds, compositions and methods” (Avalo Therapeutics, Inc., priority 2014, dated 2025).

Tests used:
[1] = molecular target: T1, NMDA-GluN2B receptors, dog frontal cortex homogenate (Canis lupus familiaris, UniProt Q5R1P0+Q5R1P3); assay: Radioligand binding, dog frontal cortex homogenate; conditions: geometric mean
T1 construct: frontal cortex homogenate (dog and rhesus monkey); from tissue; host or cells: dog frontal cortex homogenate
Procedure: (§1) Radioligand binding assays were performed at room temperature (or 37° C.) in 96-well microtiter plates with a final assay volume of […] in 20 mM HEPES buffer (pH 7.4) containing 150 mM NaCl. […] Nonspecific binding was assessed using N-(3-chlorobenzyl)-4-iodobenzimidamide (final concentration, 10 μM), and total binding was measured by addition of DMSO (final concentration, 2%). L(tk−) cell membranes expressing human GluN1a/GluN2B receptors (final concentration, 40 pM) and [^3H]-[(E)-N1-(2-methoxybenzyl)-cinnamamidine] (final concentration, 1 nM) were added to all wells of the microtiter plate. After 3 h (24 h or 48 h) of incubation at room temperature (or 37° C.), samples were filtered through Packard GF/B filters (presoaked in 0.05% polyethylenimine [PEI; Sigma P-3143]) and washed 10 times with 1 mL of cold 20 mM HEPES buffer per wash. After vacuum drying of the filter plates, 50 μL of Packard Microscint-20 was added and the bound radioactivity determined in a Packard TopCount.
(§2) Analogous binding experiments, to those described above for the cloned human receptor expressed in L(tk−) cells, were also performed using whole brain homogenate (rat), frontal cortex homogenate (dog and rhesus monkey), and temporal cortex homogenate (human).

[2] = molecular target: T2, NMDA-GluN2B receptors, rat whole brain homogenate (Rattus norvegicus, UniProt P35439+Q00960); assay: Radioligand binding, rat whole brain homogenate; conditions: geometric mean
T2 construct: performed using whole brain homogenate (rat); from tissue; host or cells: rat whole brain homogenate
Procedure: as §1, §2

[3] = Cardiovascular safety in anesthetized dogs, continuous IV infusion 90 min; format: in vivo, dog; conditions: dog, plasma, escalating IV infusion rates, read-out: plasma concentration at the end of infusion
Procedure: (§3) The potential effects of Form II of Compound (I) on the functions of the nervous system, cardiovascular system, and respiratory system were evaluated in a battery of safety pharmacology studies that included an in vitro human ether-a-go-go-related gene (hERG) assay and in vivo studies in rats, dogs, and monkeys. CNS effects were tested in rats at single doses at 15, 75, and 225 mg/kg.
(§4) Effects of Form II on the cardiovascular system were tested in several studies. Potential QTc effects were tested in vitro and in vivo.
(§5) Hemodynamic effects were tested in dogs and monkeys. […] However, Form II did produce dose-independent increases in systolic (12-15 mm Hg), diastolic (7-10 mm Hg), and mean arterial pressures (9-12 mm Hg) in conscious, chair-restrained monkeys given single oral doses at 15, 75, or 150 mg/kg and monitored for 6 h post-dose.

dogs [4] = assay: as above; format: in vivo, dog; conditions: escalating IV infusion rates
Procedure: as §3, §4, §5

[5] = Respiratory effects in anesthetized dogs, 5-min IV infusion; format: in vivo, dog; conditions: dog, plasma, 3 mg/kg
Procedure: (§6) Respiratory effects were investigated in rats and dogs. […] Mean Form II plasma concentration was approximately 30 μM (10600 ng/mL) at the end of infusion and approximately 4 μM (1250 ng/mL) at 60 min post-infusion.

dogs [6] = assay: as above; format: in vivo, dog; conditions: 3 mg/kg, monitored 60 min
Procedure: as §6

[7] = molecular target: GluN1a/GluN2B human receptors (Homo sapiens, UniProt Q05586+Q13224); assay: Calcium influx (FLIPR) in GluN1a/GluN2B L(tk−) cells
Chain of GluN1a/GluN2B human receptors (Q13224 27-1484, other chains not shown): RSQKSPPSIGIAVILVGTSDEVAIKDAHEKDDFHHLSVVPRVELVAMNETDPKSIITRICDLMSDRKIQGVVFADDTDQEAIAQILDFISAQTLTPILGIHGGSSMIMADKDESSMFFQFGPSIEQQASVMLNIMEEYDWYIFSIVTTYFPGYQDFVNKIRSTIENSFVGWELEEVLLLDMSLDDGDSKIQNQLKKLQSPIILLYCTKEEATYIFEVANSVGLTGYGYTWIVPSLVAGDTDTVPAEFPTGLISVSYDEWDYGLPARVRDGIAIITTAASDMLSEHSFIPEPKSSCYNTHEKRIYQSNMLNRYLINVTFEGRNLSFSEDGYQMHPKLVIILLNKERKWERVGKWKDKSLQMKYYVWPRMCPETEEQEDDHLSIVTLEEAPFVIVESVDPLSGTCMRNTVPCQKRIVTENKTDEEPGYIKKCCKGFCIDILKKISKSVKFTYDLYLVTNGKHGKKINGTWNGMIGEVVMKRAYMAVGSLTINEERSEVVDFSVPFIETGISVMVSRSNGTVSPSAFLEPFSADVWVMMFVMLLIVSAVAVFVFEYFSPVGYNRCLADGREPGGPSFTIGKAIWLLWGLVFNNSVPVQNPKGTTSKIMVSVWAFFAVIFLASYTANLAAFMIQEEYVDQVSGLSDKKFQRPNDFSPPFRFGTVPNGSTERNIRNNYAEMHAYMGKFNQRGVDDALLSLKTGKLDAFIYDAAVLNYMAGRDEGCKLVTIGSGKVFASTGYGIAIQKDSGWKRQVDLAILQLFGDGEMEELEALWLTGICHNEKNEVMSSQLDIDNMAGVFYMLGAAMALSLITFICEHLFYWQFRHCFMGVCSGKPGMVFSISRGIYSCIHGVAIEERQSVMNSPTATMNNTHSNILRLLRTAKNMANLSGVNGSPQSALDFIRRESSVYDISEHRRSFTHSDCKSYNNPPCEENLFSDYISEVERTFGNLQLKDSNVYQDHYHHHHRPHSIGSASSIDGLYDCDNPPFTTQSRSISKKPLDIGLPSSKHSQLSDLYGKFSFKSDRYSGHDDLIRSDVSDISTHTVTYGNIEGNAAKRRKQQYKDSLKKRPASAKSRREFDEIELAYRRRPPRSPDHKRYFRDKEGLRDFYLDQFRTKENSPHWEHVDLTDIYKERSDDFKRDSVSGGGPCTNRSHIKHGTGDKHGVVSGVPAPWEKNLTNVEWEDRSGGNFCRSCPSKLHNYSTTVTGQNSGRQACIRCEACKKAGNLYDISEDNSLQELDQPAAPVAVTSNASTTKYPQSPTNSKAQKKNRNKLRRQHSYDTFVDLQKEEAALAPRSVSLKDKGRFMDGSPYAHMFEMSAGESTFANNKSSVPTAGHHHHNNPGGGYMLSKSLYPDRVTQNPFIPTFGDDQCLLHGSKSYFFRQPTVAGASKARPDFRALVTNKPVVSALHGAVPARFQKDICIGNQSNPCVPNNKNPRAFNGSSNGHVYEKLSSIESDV

T2 sequence (Q00960 27-1482, other chains not shown): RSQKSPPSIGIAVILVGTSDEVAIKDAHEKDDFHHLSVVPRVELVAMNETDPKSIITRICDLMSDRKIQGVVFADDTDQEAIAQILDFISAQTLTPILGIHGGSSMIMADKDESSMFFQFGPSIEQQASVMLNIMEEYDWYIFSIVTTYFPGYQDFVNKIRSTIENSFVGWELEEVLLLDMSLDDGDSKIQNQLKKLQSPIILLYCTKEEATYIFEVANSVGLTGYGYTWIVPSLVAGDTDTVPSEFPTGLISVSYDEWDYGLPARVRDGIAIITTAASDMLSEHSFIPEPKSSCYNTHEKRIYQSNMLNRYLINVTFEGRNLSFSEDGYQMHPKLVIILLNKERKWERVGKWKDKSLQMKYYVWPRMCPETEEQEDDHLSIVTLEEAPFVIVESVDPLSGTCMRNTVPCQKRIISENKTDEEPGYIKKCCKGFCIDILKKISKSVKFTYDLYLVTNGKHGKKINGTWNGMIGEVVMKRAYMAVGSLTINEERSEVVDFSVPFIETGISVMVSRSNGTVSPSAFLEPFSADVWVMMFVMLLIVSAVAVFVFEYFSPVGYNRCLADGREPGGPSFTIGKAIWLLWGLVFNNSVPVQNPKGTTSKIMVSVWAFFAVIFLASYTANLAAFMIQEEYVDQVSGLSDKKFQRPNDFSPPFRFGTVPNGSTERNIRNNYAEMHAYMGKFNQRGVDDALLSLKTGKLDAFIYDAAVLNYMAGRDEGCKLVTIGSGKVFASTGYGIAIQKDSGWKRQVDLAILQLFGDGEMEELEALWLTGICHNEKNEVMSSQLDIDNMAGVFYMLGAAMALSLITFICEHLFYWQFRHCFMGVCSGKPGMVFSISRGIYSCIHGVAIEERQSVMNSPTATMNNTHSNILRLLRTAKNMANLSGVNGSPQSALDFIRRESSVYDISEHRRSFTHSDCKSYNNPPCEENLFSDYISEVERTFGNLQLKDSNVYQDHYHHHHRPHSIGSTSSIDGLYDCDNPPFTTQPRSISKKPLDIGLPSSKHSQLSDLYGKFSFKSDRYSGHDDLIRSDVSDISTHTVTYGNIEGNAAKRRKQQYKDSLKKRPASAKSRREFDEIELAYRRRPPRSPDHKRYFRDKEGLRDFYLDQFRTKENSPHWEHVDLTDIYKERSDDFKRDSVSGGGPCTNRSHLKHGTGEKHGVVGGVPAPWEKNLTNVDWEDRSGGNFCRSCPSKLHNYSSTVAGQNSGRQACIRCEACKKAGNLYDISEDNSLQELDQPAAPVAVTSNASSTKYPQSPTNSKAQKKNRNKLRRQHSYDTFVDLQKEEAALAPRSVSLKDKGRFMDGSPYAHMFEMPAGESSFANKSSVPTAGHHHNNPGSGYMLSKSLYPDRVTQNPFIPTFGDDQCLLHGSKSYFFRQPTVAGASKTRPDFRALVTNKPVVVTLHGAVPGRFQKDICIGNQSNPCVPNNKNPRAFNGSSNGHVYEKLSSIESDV
T1 sequence (Q5R1P3 27-1485, other chains not shown): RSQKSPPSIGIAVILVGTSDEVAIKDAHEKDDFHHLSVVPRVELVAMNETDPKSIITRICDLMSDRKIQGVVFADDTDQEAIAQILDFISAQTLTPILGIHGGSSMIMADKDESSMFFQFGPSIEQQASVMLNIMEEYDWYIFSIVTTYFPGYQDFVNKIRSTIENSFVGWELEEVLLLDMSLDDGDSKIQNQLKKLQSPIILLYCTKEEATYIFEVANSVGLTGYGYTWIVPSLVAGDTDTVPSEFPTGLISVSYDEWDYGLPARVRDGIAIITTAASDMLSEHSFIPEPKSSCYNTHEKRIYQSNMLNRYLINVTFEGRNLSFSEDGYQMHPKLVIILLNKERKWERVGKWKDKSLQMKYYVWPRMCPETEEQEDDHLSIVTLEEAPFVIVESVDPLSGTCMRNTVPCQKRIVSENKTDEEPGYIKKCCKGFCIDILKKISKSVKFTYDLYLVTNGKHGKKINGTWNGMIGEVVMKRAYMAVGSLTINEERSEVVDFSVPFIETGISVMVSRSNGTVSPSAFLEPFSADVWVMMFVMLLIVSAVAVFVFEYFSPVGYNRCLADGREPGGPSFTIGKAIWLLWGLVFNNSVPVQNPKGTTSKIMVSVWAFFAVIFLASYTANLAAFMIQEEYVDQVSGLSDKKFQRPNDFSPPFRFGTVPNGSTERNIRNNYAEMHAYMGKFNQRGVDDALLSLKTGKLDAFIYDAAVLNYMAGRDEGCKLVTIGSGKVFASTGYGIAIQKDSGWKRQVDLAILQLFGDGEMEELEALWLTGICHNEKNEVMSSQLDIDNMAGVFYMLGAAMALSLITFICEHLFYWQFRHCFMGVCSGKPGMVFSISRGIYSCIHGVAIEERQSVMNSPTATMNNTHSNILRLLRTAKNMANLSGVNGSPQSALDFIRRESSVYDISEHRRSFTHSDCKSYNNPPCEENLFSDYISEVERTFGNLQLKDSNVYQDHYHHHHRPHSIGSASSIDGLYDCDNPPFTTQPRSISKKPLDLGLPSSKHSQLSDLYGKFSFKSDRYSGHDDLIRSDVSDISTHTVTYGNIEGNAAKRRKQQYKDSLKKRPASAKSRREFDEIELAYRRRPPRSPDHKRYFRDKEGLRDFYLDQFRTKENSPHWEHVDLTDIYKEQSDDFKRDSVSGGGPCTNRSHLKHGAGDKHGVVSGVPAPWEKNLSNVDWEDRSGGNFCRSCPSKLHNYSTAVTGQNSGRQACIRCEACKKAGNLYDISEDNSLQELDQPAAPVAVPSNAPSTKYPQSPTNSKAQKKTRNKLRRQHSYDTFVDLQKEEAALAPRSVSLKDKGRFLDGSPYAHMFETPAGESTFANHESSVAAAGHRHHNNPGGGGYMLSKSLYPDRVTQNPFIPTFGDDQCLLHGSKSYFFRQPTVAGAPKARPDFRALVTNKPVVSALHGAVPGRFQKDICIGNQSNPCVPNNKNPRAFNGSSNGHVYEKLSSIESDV

SMILES: Cc1ccc(COC(=O)N2CC[C@H](CNc3ncccn3)[C@H](F)C2)cc1 [Form II, 4-methylbenzyl (3S, 4R)-3-fluoro-4-[(pyrimidin-2-ylamino)methyl] piperidine-1-carboxylate]
- Ki ([1]; 37° C.): 13 nM
- Ki ([1]; room temp.): 3.2 nM
- Ki ([2]; 37° C.): 14 nM
- Ki ([2]; room temp.): 3.3 nM
- concentration at 90 min [3]: ~74 µM
- heart rate, arterial blood pressure, femoral blood flow (dogs [4]): did not affect
- heart rhythm and ECG parameters incl. QTc interval (dogs [4]): did not affect
- concentration at 60 min ([5]; read-out: mean plasma concentration at 60 min post-infusion): ~4 µM
- concentration at 5 min ([5]; read-out: mean plasma concentration at the end of infusion): ~30 µM
- respiratory parameters and blood pH, pCO2, pO2 (dogs [6]): did not affect
- IC50 [7]: 3.6 nM
